{
  "source": "paper PMC9019100",
  "about": "“Development of NanoLuc-targeting protein degraders and a universal reporter system to benchmark tag-targeted degradation platforms” (Nature Communications, 2022)",
  "key": {"wild-type HT29 cells": {"tested_on": "wild-type HT29 cells", "assay": "Necroptosis assay (PI exclusion, flow cytometry), wild-type HT29 cells, TNF+SM+IDN", "format": "cell-based, human", "settings": "sheet S5G", "experimental": "To simulate necroptosis, cells were seeded into 96-well plates ±40 ng/mL doxycycline, to induce construct expression, and treated with 100 ng/mL FLAG-TNF (recombinant human, in-house), 500 nM compound A Smac mimetic (kindly gifted by TetraLogics Pharmaceuticals) and 5 μM IDN-6556 (Cayman) or 10 uM Z-VAD-fmk (Selleckchem) overnight (16–24 h). Degrader compounds or a DMSO vehicle control were added for 5 h, as stated in the Fig. legends. Cells were detached using Trypsin-EDTA (Merck) and resuspended in cell supernatants containing 10 μg/mL propidium iodide (PI). PI exclusion analysis was performed using an LSR II flow cytometer (Becton Dickinson, NJ) with 10,000 single-cell events per sample. Flow cytometry data were analysed using WEASEL version 2.7 software (Frank Battye).\nSupplementary Figure 5. […]\nNC4. Data are representative of N = 3 independent experiments. f-h. HT29 cells were stimulated with DMSO (control) or 500 nM of degrader for 5 hours before the addition of TNF (100 ng/mL) + Smac mimetic (compound A; 500 nM-1 µM) + caspase inhibitor; Emricasan (IDN) (5 µM), for 24 hours. Cell death was assessed by flow cytometric analysis of PI exclusion. N = 3 replicates (symbols) is shown, EB; mean ± SD. Data are representative of N = 3 independent experiments. i. Representative flow cytometry gating strategy. Source data are provided as a Source Data file."}, "[1]": {"tested_on": "MLKL^−/−CASP8^−/− HT29 cells expressing MLKL-NLuc and caspase-8-FKBP^F36V", "settings": "TNF+SM"}, "[2]": {"tested_on": "MLKL^−/− HT29 cells expressing untagged MLKL", "format": "cell-based", "settings": "MLKL-/- + MLKL, TNF+911+zVAD, replicate columns", "protocol": "Cell death was assessed by flow cytometric analysis of PI exclusion. […] Cell death was assessed by flow cytometric analysis of PI exclusion. […] Cell death was assessed by flow cytometric analysis of PI exclusion. e N = 4, f N = 3 independent experiments (symbols), EB represent mean ± SD. g Western from MLKL^−/−CASP8^−/− HT29 cells stably expressing the doxycycline-inducible C-terminal fusion protein, MLKL-NanoLuc (MLKL-NLuc) and constitutively expressing the C-terminal fusion protein caspase-8-FKBP^F36V. […] Cell death was assessed using an IncuCyte and Cytotox-Red uptake. N = 3 independent experiments, one representative experiment shown, EB represent mean ± SD."}, "[3]": {"target": "T1, Halo-EGFP-NanoLuc-FKBP^F36V (H-E-N-F) fusion protein (UniProt P0A3G2+P62942+Q9GV45, A155T/A167V/A172T/A224E/A31E/A60N/A81I/C128F/C176G/D78G/E160K/E257K/F37V/F95D/H272N/I117V/K175M/K195N/K70R/L47V/L54V/L88M/L99Q/M102K/N193R/N227D/P142E/P291S/Q151K/Q38R/Q45L/S2A/S58T/T264A/V71I/Y165I/Y273L/Y87F)", "format": "cell-based", "settings": "+dox; for Blank corrected (470-80) luminescence: single well replicates; for Blank corrected Raw Data (470-80): PROTAC 500nM, replicate wells"}, "[4]": {"target": "T1, Halo-EGFP-NanoLuc-FKBP^F36V (H-E-N-F) fusion protein", "format": "cell-based", "parameters": "expressed in transfected cells; host or cells: immortalized mouse dermal fibroblasts (iMDFs), ubiquitin promoter, constitutive", "settings": "500 nM"}},
  "note": "Where “and” joins values, the source holds several entries; their conditions need not be identical. Equal entries are not always repeated. Where two headings read alike, the source gives them in different places.",
  "data": [
    {"smiles": "CC[C@H](C(=O)N1CCCC[C@H]1C(=O)O[C@H](CCc1ccc(OC)c(OC)c1)c1ccccc1OCC(=O)NCCCCCCC(=O)N[C@H](C(=O)N1C[C@H](O)C[C@H]1C(=O)N[C@@H](C)c1ccc(-c2scnc2C)cc1)C(C)(C)C)c1cc(OC)c(OC)c(OC)c1", "note": "[FV1]", "values": [
      {"measurement": "viable cells (PI exclusion)", "setting": "wild-type HT29 cells; TNF+SM+IDN", "value": "9.5 and 6.6 and 6.1"},
      {"measurement": "viable cells (PI exclusion)", "setting": "wild-type HT29 cells; Unt (no death stimulus)", "value": "76.3 and 74.4 and 69.6"},
      {"measurement": "Cytotox-Red uptake (cell death), IncuCyte", "setting": "[1]; elapsed 0 h", "value": 162.812},
      {"measurement": "Cytotox-Red uptake (cell death), IncuCyte", "setting": "[1]; elapsed 0.5 h", "value": 163.75},
      {"measurement": "Cytotox-Red uptake (cell death), IncuCyte", "setting": "[1]; elapsed 1 h", "value": 172.188},
      {"measurement": "Cytotox-Red uptake (cell death), IncuCyte", "setting": "[1]; elapsed 2 h", "value": 261.562},
      {"measurement": "Cytotox-Red uptake (cell death), IncuCyte", "setting": "[1]; elapsed 3 h", "value": 541.625},
      {"measurement": "Cytotox-Red uptake (cell death), IncuCyte", "setting": "[1]; elapsed 4 h", "value": 907.75},
      {"measurement": "Cytotox-Red uptake (cell death), IncuCyte", "setting": "[1]; elapsed 5 h", "value": 1277},
      {"measurement": "Cytotox-Red uptake (cell death), IncuCyte", "setting": "[1]; elapsed 6 h", "value": 1576.88},
      {"measurement": "Cytotox-Red uptake (cell death), IncuCyte", "setting": "[1]; elapsed 6.5 h", "value": 1701.5},
      {"measurement": "Cytotox-Red uptake (cell death), IncuCyte", "setting": "[1]; elapsed 7 h", "value": 1872.81},
      {"measurement": "Cytotox-Red uptake (cell death), IncuCyte", "setting": "[1]; elapsed 7.5 h", "value": 1974.44},
      {"measurement": "Cytotox-Red uptake (cell death), IncuCyte", "setting": "[1]; elapsed 8 h", "value": 2103.31},
      {"measurement": "Cytotox-Red uptake (cell death), IncuCyte", "setting": "[1]; elapsed 9 h", "value": 2328},
      {"measurement": "Cytotox-Red uptake (cell death), IncuCyte", "setting": "[1]; elapsed 9.5 h", "value": 2410.25},
      {"measurement": "Cytotox-Red uptake (cell death), IncuCyte", "setting": "[1]; elapsed 10 h", "value": 2505.44},
      {"measurement": "Cytotox-Red uptake (cell death), IncuCyte", "setting": "[1]; elapsed 10.5 h", "value": 2578.38},
      {"measurement": "Cytotox-Red uptake (cell death), IncuCyte", "setting": "[1]; elapsed 11 h", "value": 2647},
      {"measurement": "Cytotox-Red uptake (cell death), IncuCyte", "setting": "[1]; elapsed 12 h", "value": 2777.19},
      {"measurement": "Cytotox-Red uptake (cell death), IncuCyte", "setting": "[1]; elapsed 13 h", "value": 2864.25},
      {"measurement": "Cytotox-Red uptake (cell death), IncuCyte", "setting": "[1]; elapsed 13.5 h", "value": 3026.81},
      {"measurement": "Cytotox-Red uptake (cell death), IncuCyte", "setting": "[1]; elapsed 14 h", "value": 2985.5},
      {"measurement": "Cytotox-Red uptake (cell death), IncuCyte", "setting": "[1]; elapsed 14.5 h", "value": 2992.62},
      {"measurement": "Cytotox-Red uptake (cell death), IncuCyte", "setting": "[1]; elapsed 15 h", "value": 3009.12},
      {"measurement": "Cytotox-Red uptake (cell death), IncuCyte", "setting": "[1]; elapsed 16 h", "value": 3103.38},
      {"measurement": "Cytotox-Red uptake (cell death), IncuCyte", "setting": "[1]; elapsed 17 h", "value": 3055.31},
      {"measurement": "Cytotox-Red uptake (cell death), IncuCyte", "setting": "[1]; elapsed 18 h", "value": 3042.38},
      {"measurement": "Cytotox-Red uptake (cell death), IncuCyte", "setting": "[1]; elapsed 19 h", "value": 3048.56},
      {"measurement": "Cytotox-Red uptake (cell death), IncuCyte", "setting": "[1]; elapsed 19.5 h", "value": 3013.69},
      {"measurement": "TNF+911+zVAD (PI exclusion)", "setting": "[2]; degrader 3.9nM", "value": "5.8 and 7 and 7.6"},
      {"measurement": "TNF+911+zVAD (PI exclusion)", "setting": "[2]; degrader 7.8nM", "value": "6.7 and 5.9 and 5.7"},
      {"measurement": "TNF+911+zVAD (PI exclusion)", "setting": "[2]; degrader 31.25nM", "value": "5.8 and 6 and 5.7"},
      {"measurement": "TNF+911+zVAD (PI exclusion)", "setting": "[2]; degrader 62.5nM", "value": "6.1 and 6.6 and 5.2"},
      {"measurement": "TNF+911+zVAD (PI exclusion)", "setting": "[2]; degrader 250nM", "value": "6.3 and 5.6 and 5.3"},
      {"measurement": "TNF+911+zVAD (PI exclusion)", "setting": "[2]; degrader 500nM", "value": "5.9 and 5.1 and 4.5"},
      {"measurement": "TNF+911+zVAD (PI exclusion)", "setting": "[2]; degrader 1000nM", "value": "5.8 and 4.9 and 5"},
      {"measurement": "Blank corrected (470-80) luminescence", "setting": "[3]; 3.9nM PROTAC", "value": "31936 and 32480 and 32608 and 31981"},
      {"measurement": "Blank corrected (470-80) luminescence", "setting": "[3]; 7.8nM PROTAC", "value": "24693 and 21134 and 25624 and 20591"},
      {"measurement": "Blank corrected (470-80) luminescence", "setting": "[3]; 31.25nM PROTAC", "value": "9757 and 8948 and 8891 and 8313"},
      {"measurement": "Blank corrected (470-80) luminescence", "setting": "[3]; 62.5nM PROTAC", "value": "5245 and 5647 and 5355 and 5575"},
      {"measurement": "Blank corrected (470-80) luminescence", "setting": "[3]; 250nM PROTAC", "value": "2257 and 3039 and 2286 and 2469"},
      {"measurement": "Blank corrected (470-80) luminescence", "setting": "[3]; 500nM PROTAC, 5h", "value": "3865 and 3357 and 3449 and 3849"},
      {"measurement": "Blank corrected (470-80) luminescence", "setting": "[3]; 500nM PROTAC, 8h", "value": "4070 and 3846 and 4184 and 2817"},
      {"measurement": "Blank corrected (470-80) luminescence", "setting": "[3]; 500nM PROTAC, 24h", "value": "5571 and 3433 and 4739"},
      {"measurement": "Blank corrected (470-80) luminescence", "setting": "[3]; 500nM PROTAC", "value": "1404 and 1634 and 1510 and 1568"},
      {"measurement": "Blank corrected (470-80) luminescence", "setting": "[3]; 1uM PROTAC", "value": "1692 and 1683 and 1666 and 1785"},
      {"measurement": "Blank corrected Raw Data (470-80)", "setting": "[3]; DMSO (control) co-treatment", "value": "1481 and 2747 and 2028"},
      {"measurement": "Blank corrected Raw Data (470-80)", "setting": "[3]; co-treatment with MG132 (10uM)", "value": "32421 and 46504 and 47437 and 52425"},
      {"measurement": "time up to which degradation was seen, degrader left in the medium", "setting": "[4]; 5, 24 or 48 h", "value": "up to 48 h"},
      {"measurement": "time up to which degradation was maintained, degrader removed at 5 h", "setting": "[4]; 24 or 48 h after removal", "value": "up to 48 h"}
    ]}
  ]
}
